Like-named read-outs stand apart in the source and are kept apart here.
Key:
[1] = system: Cabbage Looper (Trichoplusia ni) ("CL"), second instar larvae; test: Bioassay on cabbage looper (CL), 128-well diet tray assay; format: in vivo; details: Trichoplusia ni; for mortality at 50 µg/cm2: Table ABC, species CL, 128-well diet tray assay, second instar larvae, read-out: CL rating (% control or mortality class)
Outline: (§1)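 Sealed trays, 25° C., 14:10 light:dark, 5–7 d. Per-well % mortality recorded, mean of eight wells reported.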

[2] = system: Beet Armyworm (Spodoptera exigua) ("BAW"), second instar larvae; test: Bioassay on beet armyworm (BAW), 128-well diet tray assay; format: in vivo; details: for pest or weed control at 50 µg/cm2: Spodoptera exigua; for BAW rating (% control or mortality class): Table ABC, species BAW, 128-well diet tray assay, second instar larvae
Outline: as §1

[3] = read-out: CL (Biological Results, rating)
[4] = read-out: BAW (Biological Results, rating)

Compound COC(C)c1ccc(C)cc1N1C(=O)CS/C1=N\C(=O)Nc1ccc(-c2ccn(-c3ccc(C(F)(F)F)cn3)n2)cc1C (centres unmarked) [Compound J311, (Z)-1-(3-(2-(1-Methoxyethyl)-5-methylphenyl)-4-oxothiazolidin-2-ylidene)-3-(2-methyl-4-(1-(5-(trifluoromethyl)pyridin-2-yl)-1H-pyrazol-3-yl)phenyl)urea] has a pest or weed control at 50 µg/cm2 [1, 3] of 50 to 100% and a pest or weed control at 50 µg/cm2 [2, 4] of 50 to 100%.

Work on COC(c1ccc(C)cc1N1C(=O)CS/C1=N\C(=O)Nc1ccc(-n2cnc(-c3ccc(OC(F)(F)F)cc3)n2)cc1)C(F)(F)F (centres unmarked) [Compound J405, (Z)-1-(3-(5-Methyl-2-(2,2,2-trifluoro-1-methoxyethyl)phenyl)-4-oxothiazolidin-2-ylidene)-3-(4-(3-(4-(trifluoromethoxy)phenyl)-1H-1,2,4-triazol-1-yl)phenyl)urea] yielded a pest or weed control at 50 µg/cm2 ([1]; read-out: CL rating) of 50 to 100% and a pest or weed control at 50 µg/cm2 ([2]; read-out: BAW rating) of 50 to 100%.

Cc1ccc(C(C)C)c(N2C(=O)CS/C2=N\C(=O)Nc2ccc(-c3ncn(-c4ccc(OC(F)(F)F)cc4)n3)cc2O)c1 [Compound J175, (Z)-1-(2-hydroxy-4-(1-(4-(trifluoromethoxy)phenyl)-1H-1,2,4-triazol-3-yl)phenyl)-3-(3-(2-isopropyl-5-methylphenyl)-4-oxothiazolidin-2-ylidene)urea] gave a pest or weed control at 50 µg/cm2 [1, 3] of 50 to 100% and a pest or weed control at 50 µg/cm2 [2, 4] of 50 to 100%.

With COCc1ccc(C)cc1N1C(=O)CS/C1=N\C(=O)Nc1ccc(-n2cnc(-c3ccc(OC(F)(F)F)cc3)c2)cc1Cl [Compound J788, (Z)-1-(2-Chloro-4-(4-(4-(trifluoromethoxy)phenyl)-1H-imidazol-1-yl)phenyl)-3-(3-(2-(methoxymethyl)-5-methylphenyl)-4-oxothiazolidin-2-ylidene)urea] the mortality at 50 µg/cm2 [1] was 50 to 100% and the “BAW rating (% control or mortality class)” value [2] was “A (50-100)”.

Work on Cc1ccc(N(C)C)c(N2C(=O)CS/C2=N\C(=O)Nc2ccc(-c3ncn(-c4ccc(OC(F)(F)F)cc4)n3)cc2)c1 [Compound J322, (Z)-1-(3-(2-(dimethylamino)-5-methylphenyl)-4-oxothiazolidin-2-ylidene)-3-(4-(1-(4-(trifluoromethoxy)phenyl)-1H-1,2,4-triazol-3-yl)phenyl)urea] yielded a pest or weed control at 50 µg/cm2 [1, 3] of 50 to 100% and a pest or weed control at 50 µg/cm2 [2, 4] of 50 to 100%.

Compound COc1ccc(C(C)C)c(N2C(=O)CS/C2=N\C(=O)Nc2ccc(-c3ncn(-c4ccc(OC(F)(F)C(F)(F)F)cc4)n3)cc2F)c1 [Compound J27, (Z)-1-(2-Fluoro-4-(1-(4-(perfluoroethoxy)phenyl)-1H-1,2,4-triazol-3-yl)phenyl)-3-(3-(2-isopropyl-5-methoxyphenyl)-4-oxothiazolidin-2-ylidene)urea] has a pest or weed control at 50 µg/cm2 [1, 3] of 50 to 100% and a pest or weed control at 50 µg/cm2 [2, 4] of 50 to 100%.

Compound Cc1ccc(COCC(F)(F)F)c(N2C(=O)CS/C2=N\C(=O)Nc2ccc(-c3nnn(-c4ccc(OC(F)(F)F)cc4)n3)cc2)c1 [Compound J767, (Z)-1-(3-(5-Methyl-2-((2,2,2-trifluoroethoxy)methyl)phenyl)-4-oxothiazolidin-2-ylidene)-3-(4-(2-(4-(trifluoromethoxy)phenyl)-2H-tetrazol-5-yl)phenyl)urea] has a pest or weed control at 50 µg/cm2 ([1]; read-out: CL rating) of 50 to 100% and a pest or weed control at 50 µg/cm2 ([2]; read-out: BAW rating) of 50 to 100%.

COCc1ccc(N(C)C)cc1N1C(=O)CS/C1=N\C(=O)Nc1ccc(-c2cn(-c3ccc(OC(F)(F)F)cc3)nn2)cc1 [Compound J496, (Z)-1-(3-(5-(Dimethylamino)-2-(methoxymethyl)phenyl)-4-oxothiazolidin-2-ylidene)-3-(4-(1-(4-(trifluoromethoxy)phenyl)-1H-1,2,3-triazol-4-yl)phenyl)urea] was tested, and the pest or weed control at 50 µg/cm2 ([1]; read-out: CL rating) was 50 to 100% and the pest or weed control at 50 µg/cm2 ([2]; read-out: BAW rating) was 50 to 100%.

CCOCc1ccc(C)cc1N1C(=O)CS/C1=N\C(=O)Nc1ccc(-c2ncn(-c3ccc(S(F)(F)(F)(F)F)cc3)n2)cc1C(F)(F)F [Compound J627, (Z)-1-(3-(2-(Ethoxymethyl)-5-methylphenyl)-4-oxothiazolidin-2-ylidene)-3-(4-(1-(4-(pentafluoro-λ^6-sulfaneyl)phenyl)-1H-1,2,4-triazol-3-yl)-2-(trifluoromethyl)phenyl)urea] gave a pest or weed control at 50 µg/cm2 ([1]; read-out: CL rating) of 50 to 100% and a pest or weed control at 50 µg/cm2 ([2]; read-out: BAW rating) of 50 to 100%.

In the case of COC(C)c1ccc(C)cc1N1C(=O)CS/C1=N\C(=O)Nc1ccc(-c2ncn(-c3ccc(SC(F)(F)F)cc3)n2)cc1C (centres unmarked) [Compound J233, (Z)-1-(3-(2-(1-Methoxyethyl)-5-methylphenyl)-4-oxothiazolidin-2-ylidene)-3-(2-methyl-4-(1-(4-((trifluoromethyl)thio)phenyl)-1H-1,2,4-triazol-3-yl)phenyl)urea], the pest or weed control at 50 µg/cm2 [1, 3] is reported as 50 to 100% and the pest or weed control at 50 µg/cm2 [2, 4] is reported as 50 to 100%.

CC(C)c1cc(F)c(N(C)C)cc1N1C(=O)CS/C1=N\C(=O)Nc1ccc(-n2cnc(-c3ccc(OC(F)(F)F)cc3)n2)cc1 [Compound J410, (Z)-1-(3-(5-(Dimethylamino)-4-fluoro-2-isopropylphenyl)-4-oxothiazolidin-2-ylidene)-3-(4-(3-(4-(trifluoromethoxy)phenyl)-1H-1,2,4-triazol-1-yl)phenyl)urea] showed a pest or weed control at 50 µg/cm2 ([1]; read-out: CL rating) of 50 to 100% and a pest or weed control at 50 µg/cm2 ([2]; read-out: BAW rating) of 50 to 100%.

Cc1ccc(C(F)(F)F)cc1N1C(=O)CS/C1=N\C(=O)Nc1ccc(-c2ncn(-c3ccc(OC(F)(F)F)cc3)n2)cc1F [Compound J799, (Z)-1-(2-Fluoro-4-(1-(4-(trifluoromethoxy)phenyl)-1H-1,2,4-triazol-3-yl)phenyl)-3-(3-(2-methyl-5-(trifluoromethyl)phenyl)-4-oxothiazolidin-2-ylidene)urea] was tested, and the mortality at 50 µg/cm2 [1] was 50 to 100% and the “BAW rating (% control or mortality class)” value [2] was “A (50-100)”.

Cc1ccc(C(C)C)c(N2C(=O)CS/C2=N\C(=O)Nc2ccc(-c3ncn(-c4cccc(C(F)(F)F)c4)n3)cc2C)c1 [Compound J131, (Z)-1-(3-(2-Isopropyl-5-methylphenyl)-4-oxothiazolidin-2-ylidene)-3-(2-methyl-4-(1-(3-(trifluoromethyl)phenyl)-1H-1,2,4-triazol-3-yl)phenyl)urea] showed a pest or weed control at 50 µg/cm2 [1, 3] of 50 to 100% and a pest or weed control at 50 µg/cm2 [2, 4] of 50 to 100%.

With Cc1ccc([N+](=O)[O-])c(N2C(=O)CS/C2=N\C(=O)Nc2ccc(-c3ncn(-c4ccc(OC(F)(F)F)cc4)n3)cc2F)c1 [Compound J163, (Z)-1-(2-Fluoro-4-(1-(4-(trifluoromethoxy)phenyl)-1H-1,2,4-triazol-3-yl)phenyl)-3-(3-(5-methyl-2-nitrophenyl)-4-oxothiazolidin-2-ylidene)urea] the pest or weed control at 50 µg/cm2 [1, 3] was 50 to 100% and the pest or weed control at 50 µg/cm2 [2, 4] was 50 to 100%.

COCc1ccc(N(C)C)cc1N1C(=O)CS/C1=N\C(=O)Nc1ccc(-n2cnc(-c3ccc(OC(F)(F)F)cc3)n2)cc1C [Compound J444, (Z)-1-(3-(5-(Dimethylamino)-2-(methoxymethyl)phenyl)-4-oxothiazolidin-2-ylidene)-3-(2-methyl-4-(3-(4-(trifluoromethoxy)phenyl)-1H-1,2,4-triazol-1-yl)phenyl)urea] showed a pest or weed control at 50 µg/cm2 ([1]; read-out: CL rating) of 50 to 100% and a pest or weed control at 50 µg/cm2 ([2]; read-out: BAW rating) of 50 to 100%.

For Cc1ccc(C(C)C)c(N2C(=O)CS/C2=N\C(=O)Nc2ccc(-c3cn(-c4ccc(S(F)(F)(F)(F)F)cc4)cn3)cc2F)c1 [Compound J589, (Z)-1-(2-fluoro-4-(1-(4-(pentafluoro-λ^6-sulfaneyl)phenyl)-1H-imidazol-4-yl)phenyl)-3-(3-(2-isopropyl-5-methylphenyl)-4-oxothiazolidin-2-ylidene)urea], the pest or weed control at 50 µg/cm2 ([1]; read-out: CL rating) was 50 to 100% and the pest or weed control at 50 µg/cm2 ([2]; read-out: BAW rating) was 50 to 100%.
